According to patent US20200263184A1, “PHARMACEUTICAL COMPOSITION FOR PREVENTING AND TREATING CANCER, CONTAINING MALATE-ASPARTATE SHUTTLE INHIBITOR AND ANTICANCER DRUG AS ACTIVE INGREDIENTS” (NATIONAL CANCER CENTER, priority 2017, published 2020):

Key:
Format in all cases: cell-based
[1] = test system: Huh7, SNB19, UACC62, MDA-MB-231, KATO III cancer cell lines; assay: SRB cell proliferation, NPM and etomoxir, cancer cell lines; conditions: 25 μM NPM alone, 24 hours; cancer cell lines other than SNB19
[2] = test system: A549 cells (lung cancer cell line); assay: Intracellular ATP level with PSA or PA, A549; conditions: 2, 4, 6, 8 or 10 mM, 48 hours; compared to an untreated control
Protocol: (§1) Specifically, A549 cells, IMR90 cells, H23 cells, H226 cells, H522 cells, and EKVX cells, which are lung cancer cell lines; and UACC62 cells, MALME-3M cells, A357 cells, M14 cells, and UACC257 cells, which are melanoma cell lines, were separately cultured. […] for 48 hours, and then intracellular ATP levels were examined using an ATP colorimetric/fluorometric analysis kit (BioVision, Milpitas, Calif., USA) in accordance with the manufacturer's protocol. The incubated cells were divided into groups of 1×10^6 cells, 100 μl of an ATP assay buffer was added thereto to lyse the cells, followed by centrifugation at 15,000×g and 4° C. for 2 minutes to separate only the supernatant. 2 μl to 50 μl of the separated supernatant was transferred to a 96-well plate, and then an ATP assay buffer was added thereto to a final volume of 50 μl per well. […] After mixing, the plate was maintained in a dark room at room temperature for 30 minutes, and then absorbance was measured at 570 nm using a microplate reader. To compare relative ATP levels among the measured values, an absorbance value for cancer cells to which gossypol and phenformin were not added was set as a reference, and relative absorbance values of the cases in which cancer cells were treated with each drug were compared, to compare ATP levels in the cells. […]

[3] = test system: UACC62 cells (melanoma cell line); assay: Intracellular ATP level with PSA or PA, UACC62; conditions: 2, 4, 6, 8 or 10 mM, 48 hours; compared to an untreated control
Protocol: as §1

[4] = test system: A549 cells (lung cancer cell line); assay: SRB cell proliferation with PSA, A549; conditions: PSA 2, 4, 6, 8 or 10 mM, 48 hours
Protocol: (§2) Specifically, A549 cells, H522 cells, H226 cells, H23 cells, and EKVX cells, which are lung cancer cell lines; and UACC62 cells, UACC257 cells, A375 cells, SK-MEL-5 cells, and MALME-3M cells, which are melanoma cell lines, were separately cultured. The respective cells were cultured at a […] dose and inoculated in a 96-well plate at a concentration ranging from 5,000 cells/ml to 20,000 cells/ml according to the doubling time of each cell line. […] After completion of the culturing, to perform SRB analysis, a cooled 50% aqueous TCA solution was added to each well to a final concentration of 10% and the cells were incubated in a 4° C. refrigerated state for 60 minutes and then fixed. After incubation, the supernatant was removed, washed five times with tap water, and dried. A 1% acetic acid aqueous solution containing 0.4% sulforhodamine B was added to the dried sample in each well and maintained at room temperature for 10 minutes to stain the cells. After staining, the dye which was not used for staining was removed by washing with a 1% acetic acid solution, and then the plate was dried again. The dye which was used for staining was dissolved in a 10 mM Trisma base solution, and then absorbance was measured at 515 nm.
(§3) Specifically, A549 cells (lung cancer cell line), UACC62 cells (melanoma cell line), and IMR90 cells (normal control, lung fibroblasts) were separately cultured. […]

[5] = test system: UACC62 cells (melanoma cell line); assay: SRB cell proliferation with PSA, UACC62; conditions: PSA 2, 4, 6, 8 or 10 mM, 48 hours
Protocol: as §2, §3

[6] = test system: IMR90 cells (normal control, lung fibroblasts); assay: SRB cell proliferation with PSA, IMR90; conditions: normal cell line, PSA 2, 4, 6, 8 or 10 mM, 48 hours
[7] = test system: EKVX, A549, HOP-62 (lung cancer) and UACC62, UACC257, A375 (melanoma) cells; assay: SRB cell proliferation, MAS inhibitor and gossypol, cancer cell lines; conditions: 48 hours
cancer cell lines = assay: Intracellular ATP level, MAS inhibitor and gossypol, cancer cell lines; conditions: 10 μM gossypol alone vs 4 mM PSA or PA alone, 48 hours
Protocol: as §1, with “[…],” for “an absorbance value for cancer cells to which gossypol and phenformin were not added was set as a reference,”

A549 cells [8] = assay: Mitochondrial membrane potential (TMRE), A549; conditions: 10 μM gossypol alone, 48 hours
Protocol: (§4) Specifically, A549 cells, UACC62 cells, and IMR90 cells, as a normal control, were cultured. The respective cultured cells were treated with a drug mixture of 4 mM of an SLC25A11 inhibitor (PSA or PA), which is an MAS inhibitor, and 10 μM gossypol or with only one of the drugs and cultured in the same manner as described above for 48 hours, and then each cell culture solution was dispensed into chamber slides (for fluorescence microscopy) or a 6-well plate (for flow cytometry). The dispensed culture solution was treated with 100 nM tetramethylrodamine ester (TMRE) as a fluorescent probe and a reaction was allowed to occur therebetween for 20 minutes. After the reaction, the cells were washed with cooled PBS, and the fluorescence development of the cells was measured using a Zeiss LSM510 fluorescence microscope (Carl Zeiss, Oberkochen, Baden-Wurttemberg, Germany). In addition, fluorescence intensity was analyzed in a flow cytometer using a 585 nm (FL-2) channel.

[9] = test system: IMR90 cells (normal control); assay: Mitochondrial membrane potential (TMRE), IMR90; conditions: single drug alone (4 mM PSA or PA; 10 μM gossypol), 48 hours
Protocol: as §4

A549 cells [10] = assay: Cell apoptosis (Annexin V-FITC/PI flow cytometry), A549; conditions: single drug alone (4 mM PSA or PA; 10 μM gossypol), 48 hours
Protocol: (§5) First, A549 cells, UACC62 cells, and IMR90 cells, as a normal control, were cultured. The cultured cells were treated with a drug mixture of a 4 mM […] inhibitor (PSA or PA), which is an MAS inhibitor, and 10 μM gossypol or with only one of the drugs and cultured in the same manner as described above for 48 hours. The medium was removed from the cultured cells, followed by washing the cells twice with cold PBS and centrifugation at 1,400 rpm for 3 minutes, and a binding buffer was added thereto so that concentration was 1×10^6 cells/[…]. Then, a […] buffer was transferred to a 5-mL culture tube and 5 μl of each of Annexin V-FITC and propidium iodine (PI) was added thereto. Mixing was performed by slowly vortexing the tube, and then the cells were incubated in a dark room at room temperature for 15 minutes. After incubation, a binding buffer (400 μl) was added thereto and the degree of increase in cell apoptosis was examined by a flow cytometer.

UACC62 cells = assay: Cell apoptosis (Annexin V-FITC/PI flow cytometry), UACC62; conditions: single drug alone (4 mM PSA or PA; 10 μM gossypol), 48 hours
Protocol: as §5

[11] = test system: IMR90 cells (normal control); assay: Cell apoptosis (Annexin V-FITC/PI flow cytometry), IMR90; conditions: single drug alone (4 mM PSA or PA; 10 μM gossypol), 48 hours
Protocol: as §5

For `O=C1C=CC(=O)N1c1ccc2ccc3cccc4ccc1c2c34` [NPM, N-(1-pyrenyl)maleimide], the “effect of inhibiting cancer cell proliferation” value [1] was “could be exhibited”.
For `O=C(O)C(=O)c1ccccc1C(=O)O` [PA, phthalonic acid], the “intracellular ATP levels” value [2] was “reduced” and the “intracellular ATP levels” value [3] was “reduced”.
With `O=C(O)CC(C(=O)O)c1ccccc1` (stereo not shown) [PSA, phenyl succinic acid] the “level of cancer cell line proliferation” value [4] was “reduced in a manner dependent upon the concentration of added PSA”, the “level of cancer cell line proliferation” value [5] was “reduced in a manner dependent upon the concentration of added PSA” and the cell proliferation [6] was “not significantly inhibited”. For the same compound, the “intracellular ATP levels” value [2] was “reduced” and the “intracellular ATP levels” value [3] was “reduced”.
With `Cc1cc2c(C(C)C)c(O)c(O)c(C=O)c2c(O)c1-c1c(C)cc2c(C(C)C)c(O)c(O)c(C=O)c2c1O` [gossypol] the “effect of inhibiting a cell proliferation level, gossypol alone versus NPM alone” value ([7]; 10 μM gossypol alone vs 25 μM NPM) was “more significantly exhibited”, the “reduction in the cell proliferation level, gossypol alone versus PSA or PA alone” value ([7]; 10 μM gossypol alone vs 4 mM PSA or PA alone) was “more prominent” and the “intracellular ATP production level, difference between gossypol alone and PSA or PA alone” value (cancer cell lines) was “no significant difference”. For the same compound, the mitochondrial membrane potential (A549 cells [8]) was “significant decrease”, the mitochondrial membrane potential [9] was “no significant change” and the cell apoptosis (A549 cells [10]) was “insignificant extent”. For the same compound, the cell apoptosis (UACC62 cells) was “insignificant extent” and the cell apoptosis [11] was “no significant cell apoptosis”.
